Data on two molecules can be found in patent publication US10231980B2, “Cortexolone 17alpha-benzoate for use in the treatment of tumours” (COSMO TECHNOLOGIES LTD., priority 2014, dated 2019).

Like-named read-outs stand apart in the source and are kept apart here.

The test system of one data set is MCF7. Nature of the data set: In vitro proliferation / cytotoxic assay on breast cancer cells (Examples 14, 25). The note with it: for effect on viability, in words: MCF7. The method, then:
(§1) Data shown in Table I were fitted through sigmoidal dose response curves and analyzed using Prizm statistical.
(§2) For the cytotoxic assay, cells were seeded in 96-well flat bottom culture plates in media containing charcoal stripped serum. After 24 hours, test compounds were added to the cells. DMSO was used as the vehicle negative control and RU486 as the positive control. After 72 hour incubation, cells were harvested and lysed to determine cell viability using the Cell Titer Glow assay.

A further data set concerns MDA-MB-231. The description is as above. It counts as cell-based. The settings on record: Homo sapiens; MDA-MB-231; at 100 μM; read-out: maximum inhibition of viability. The method, then: as §1, §2
The next data set concerns stimulated PBMC. Put plainly: IC50 on stimulated (actively dividing) PBMC. The note with it: PBMC Stim; Table IV. In kind it is cell-based, human.
Another data set has as its system LNCaP. Put plainly: ATP-dependent cell viability assay (Cell Titer Glo), Example 12. The note with it: for IC50: Homo sapiens, LNCaP.
Excerpt: as §1
On the technique in general: ATP-based viability assays read luminescence as a measure of living cells.

The test system of the next data set is PC3. The description is as above. The note with it: for IC50: Homo sapiens.
Excerpt: as §1

In the next data set the test system is Panc1. The description is as above. The note with it: human, 3 days.
Excerpt: as §1

The next data set relates to MiaPaca2. Described as above. The note with it: human, 3 days.
Excerpt: as §1

Another data set concerns 7 cancer cell lines. Nature of the data set: Therapeutic index over a panel of cancer cell lines. It counts as cell-based. The settings on record: average over the cancer cell lines of Table VII. The method, then: The compound toxicity was determined as follow:
Therapeutic Index=Safety/Potency=IC50 stimulated PBMC/IC50 cancer cell

Another data set has as its system HT29. Nature of the data set: MTT colorimetric assay on epithelial intestinal cancer cells. It counts as cell-based. The settings on record: for IC50: Homo sapiens, HT-29, HT29. Here is the method:
The experiment was performed to test and define anticancer activity in vitro of Cortexolone 17α-benzoate and cortexolone 17α-valerate, 21-propionate on cell lines representatives of epithelial intestinal tumours, namely HT29. The experiment method consisted in: • 1. Monolayer HT-29 cells were plated in: 96-wells plates at the density of 2×10^4 cells/mL. The cells plated were kept at 37° C. in 5% CO2 and left to attach for 24 h. • 2. […] After 72 h of treatment, the MTT colorimetric assay was performed.
(Formazan colour is commonly taken as a measure of viable cells.)

Data set [1] deals with caspases 8, 9, 3/7 in MiaPaca2 cells. Put plainly: Caspase 8, 9 and 3/7 activity. It counts as cell-based.
Procedure: To better analyze the phenomenon, the enzymatic activity of Caspase 8 (initiator caspase for Extrinsic Pathway) and Caspase 9 (initiator caspase for Intrinsic Pathway) and of Caspases 3 and 7 (effector caspases) were measured.
Gemcitabine (a known pancreatic cancer chemotherapeutic agent) and DMSO were used as positive and negative controls, respectively. There were three incubation time points: 8 hours, 24 hours, and 48 hours. After each time point, cells were lysed in multiplex buffer containing the caspase 3/7 substrate combined with either caspase 8 or caspase 9 reagents, which contain stable luciferase in proprietary buffers. The lysates were transferred to white opaque 96-well plates before measuring luminescence on a Tecan Safire instrument. Parallel plates treated identically were used to determine cell viability. All caspase activities were corrected for the number of viable cells.

Regarding `CC#C[C@]1(O)CC[C@H]2[C@@H]3CCC4=CC(=O)CCC4=C3[C@@H](c3ccc(N(C)C)cc3)C[C@@]21C` [RU486, Mifepristone, reference compound], in the data set with MCF7, the “effect on viability, in words” value is “does not affect”. In addition, in the data set on MCF7 (MCF7 (ER+PR+GR+/−), 72 hour, Table VI), the IC50 result is listed as “Not active”. For the same molecule, the cytotoxicity at 100 µM with MDA-MB-231 turned out to be 25%.
Take `CCCCC(=O)O[C@]1(C(=O)CO)CC[C@H]2[C@@H]3CCC4=CC(=O)CC[C@]4(C)[C@H]3CC[C@@]21C` [CB-03-05, cortexolone 17α-valerate]: the “Therapeutic Index = IC50 resting PBMC/IC50 cancer cell” value amounted to 1 with stimulated PBMC; 4 with LNCaP (human, 3 days); 1 in the data set with PC3 (human, 3 days); 2 in the data set with Panc1; 2 with MiaPaca2; 3 with MCF7 (human, 3 days). The “Therapeutic Index = IC50 resting PBMC/IC50 cancer cell” value in the data set with HT29 (human, 72 h) is reported as 4. The IC50 in the data set on LNCaP was 32 µM; in the data set on LNCaP (72 h), 32 µM; in the data set with LNCaP (read-out: In vitro proliferation IC50), 32 µM; with LNCaP (read-out: in vitro proliferation IC50), 32 µM; in the data set on PC3 (PC-3, 72 h, PC3, Tables I and II, titrated 3 uM to 200 uM, 3 days), 170 µM; with PC3 (PC-3, read-out: In vitro proliferation IC50, PC3, Table IV), 170 µM. Besides, the IC50 in the data set with PC3 (PC-3, read-out: in vitro proliferation IC50, PC3, Table III) is 170 µM; in the data set with HT29 (Table III, read-out: in vitro proliferation IC50), 35 µM; with HT29 (Table IV, read-out: In vitro proliferation IC50) it was 35 µM. Moreover, the “Therapeutic Index = IC50 stimulated PBMC/IC50 cancer cell” value turned out to be 4 in the data set with LNCaP (human, 3 days); 1 in the data set on PC3 (human, 3 days); 2 with Panc1; 2 with MiaPaca2; 3 in the data set with MCF7 (human, 3 days); 4 in the data set on HT29 (human, 72 h). In addition, the “effect on viability, in words” value in the data set with MCF7 is “only active in MCF7”. The “Therapeutic Index = IC50 stimulated PBMC/IC50 cancer cell, AVERAGE” value in the data set with 7 cancer cell lines worked out at 3. Besides, in [1], the “profile for caspase activation” value is on record as “does not show a good profile for caspase activation”.
